Measured values: publication PMC6792352, “Limited Chemical Structural Diversity Found to Modulate Thyroid Hormone Receptor in the Tox21 Chemical Library” (Environmental Health Perspectives, 2019)
Where a name gives a salt, the structure may show the parent alone. Positions of bridges follow the written chain, without caps; N, C: chain ends. Residues, ends and D or L forms follow the SMILES beside them.

Test: in vitro
Conditions: rat, gh3-tre-luc cells

SMILES	CC50 at 24 h (AC50 (uM) modified / 1000)	further results
NC(N)=Nc1nc(CSCCC(N)=NS(N)(=O)=O)cs1 [Famotidine]	> 90 µM	
COP(=S)(OC)Oc1ccc(S(=O)(=O)N(C)C)cc1 [Famphur]		CC50 at 24 h (AC50 (uM) modified / 1000, Tox21_110001=Tox21_111946, viability, 1 nM T3 present, 24 h): > 50 µM; CC50 at 24 h (AC50 (uM) modified / 1000, Tox21_110001=Tox21_301907, viability, 1 nM T3 present, 24 h): > 90 µM
CC(C)c1c(CN(C)C(C)Cc2ccccc2)n(C)n(-c2ccccc2)c1=O (centres unmarked) [Famprofazone]	> 20 µM	
O=S1(=O)c2cccc3cccc(c23)N1CCCN1CCN(c2ccc(F)cc2)CC1 [Fananserin]	> 50 µM	
O=c1[nH]c2cc(C(F)(F)F)c(N3CCOCC3)cc2n(CP(=O)(O)O)c1=O [Fanapanel]	> 50 µM	
CCc1cc(C2=C(C(=O)O)N(c3ccccc3C(F)(F)F)S(=O)(=O)c3ccccc32)cc2c1OCO2 [Fandosentan potassium salt]	8.29 µM	
c1ccc(CCNc2nc(-c3ccccc3)cs2)cc1 [Fanetizole]	> 50 µM	
Cc1oc(-c2ccccc2)nc1CCOc1ccc(C[C@H](Nc2ccccc2C(=O)c2ccccc2)C(=O)O)cc1 [Farglitazar]	25 µM	
CC(C)=CCC/C(C)=C/CC/C(C)=C/CO [Farnesol]	68.1 µM	
O=C1CC[C@H](C(=O)N2CCCCC2)N1 [Fasoracetam]	> 50 µM	
O=S(=O)(c1cccc2cnccc12)N1CCCNCC1 [Fasudil hydrochloride]	> 50 µM	
Cc1nc(-c2ccc(OCC(C)C)c(C#N)c2)sc1C(=O)O [Febuxostat]	> 50 µM	
NC(=O)OCC(COC(N)=O)c1ccccc1 [Felbamate]	> 90 µM	
O=C(O)Cc1ccc(-c2ccccc2)cc1 [Felbinac]	> 20 µM	
CCOC(=O)C1=C(C)NC(C)=C(C(=O)OC)C1c1cccc(Cl)c1Cl (centres unmarked) [Felodipine]	13.5 µM	
NCCCC[C@H](NC(=O)[C@@H]1CCCN1C(=O)[C@@H]1CSSC[C@H](N)C(=O)N[C@@H](Cc2ccccc2)C(=O)N[C@@H](Cc2ccccc2)C(=O)N[C@@H](CCC(N)=O)C(=O)N[C@@H](CC(N)=O)C(=O)N1)C(=O)NCC(N)=O [Felypressin] (H-CFFQNCPKG-NH2; disulfide 1-6)	> 50 µM	
CSC1=N[C@@](C)(c2ccccc2)C(=O)N1Nc1ccccc1 [Fenamidone]	> 90 µM	
CN(C)c1ccc(N=NS(=O)(=O)O)cc1 [Fenaminosulf]	> 90 µM	
CCOP(=O)(O)N(c1ccc(SC)c(C)c1)C(C)C [Fenamiphos]		CC50 at 24 h (AC50 (uM) modified / 1000, Tox21_110001=Tox21_400081, viability, 1 nM T3 present, 24 h): > 90 µM
Nc1nnnn1-c1ccccc1 [Fenamol]	> 50 µM	

SMILES	CC50 at 24 h (AC50 (uM) modified / 1000)	further results
CC(C)(C)c1ccc(CCOc2ncnc3ccccc23)cc1 [Fenazaquin]	> 90 µM	
N#CC(CCc1ccc(Cl)cc1)(Cn1cncn1)c1ccccc1 (centres unmarked) [Fenbuconazole]	49.1 µM	
O=C(O)CCC(=O)c1ccc(-c2ccccc2)cc1 [Fenbufen]	> 20 µM	
CCOC(=O)c1nc(C(Cl)(Cl)Cl)n(-c2ccc(Cl)cc2Cl)n1 [Fenchlorazole-ethyl]	52.1 µM	
COP(=S)(OC)Oc1cc(Cl)c(Cl)cc1Cl [Fenchlorphos]		CC50 at 24 h (AC50 (uM) modified / 1000, Tox21_110001=Tox21_113416, viability, 1 nM T3 present, 24 h): > 50 µM; CC50 at 24 h (AC50 (uM) modified / 1000, Tox21_110001=Tox21_301334, viability, 1 nM T3 present, 24 h): > 90 µM
CC(=O)OC1C2(C)CCC(C2)C1(C)C (centres unmarked) [Fenchyl acetate]	> 90 µM	
O=C(O)Cc1ccccc1Oc1ccc(Cl)cc1Cl [Fenclofenac]	> 50 µM	
NC(Cc1ccc(Cl)cc1)C(=O)O (centres unmarked) [Fenclonine]	> 50 µM	
O=C(O)Cc1csc(-c2ccc(Cl)cc2)n1 [Fenclozic acid]	> 50 µM	
CC(NCCC(c1ccccc1)c1ccccc1)c1ccccc1 (centres unmarked) [Fendiline hydrochloride]	6.49 µM	
CC(Cc1ccccc1)NCCn1cnc2c1c(=O)n(C)c(=O)n2C (centres unmarked) [Fenethylline hydrochloride]		CC50 at 24 h (AC50 (uM) modified / 1000, Tox21_110001=Tox21_112896, viability, 1 nM T3 present, 24 h): > 90 µM
CCNC(C)Cc1cccc(C(F)(F)F)c1 (centres unmarked) [Fenfluramine]		CC50 at 24 h (AC50 (uM) modified / 1000, Tox21_110001=Tox21_111697, viability, 1 nM T3 present, 24 h): > 50 µM
CC1(C(=O)Nc2ccc(O)c(Cl)c2Cl)CCCCC1 [Fenhexamid]	76.7 µM	
CCCCC(O)c1ccccc1 (centres unmarked) [Fenipentol]	> 50 µM	
COP(=S)(OC)Oc1ccc([N+](=O)[O-])c(C)c1 [Fenitrothion]	> 90 µM	
CN1CC(=O)N=C1NC(=O)Nc1cccc(Cl)c1 [Fenobam]	> 50 µM	
CC(C)OC(=O)C(C)(C)Oc1ccc(C(=O)c2ccc(Cl)cc2)cc1 [Fenofibrate]	78.6 µM	
Oc1ccc(C2CNCCc3c2cc(O)c(O)c3Cl)cc1 (centres unmarked) [Fenoldopam]	> 50 µM	
CC(C(=O)O)c1cccc(Oc2ccccc2)c1 (centres unmarked) [Fenoprofen calcium salt dihydrate]	> 20 µM	
